Assay results as given in ChEMBL document CHEMBL1147756, “Synthesis and antiviral activity of 7-deazaneplanocin A against orthopoxviruses (vaccinia and cowpox virus)” (Bioorg Med Chem Lett, 2006).

Assays:
Cowpox virus = assay: Antiviral activity against Cowpox virus in HFF cells; type: functional, organism-based
Vaccinia virus = assay: Antiviral activity against Vaccinia virus in HFF cells; type: functional, organism-based; details: Orthopoxvirus vaccinia
HFF = assay: Cytotoxicity in HFF cells; type: functional; details: Homo sapiens

Structure (SMILES) | EC50 (Cowpox virus) [µM] | EC50 (Vaccinia virus) [µM] | EC90 (Cowpox virus) [µM] | EC90 (Vaccinia virus) [µM] | CC50 (HFF) [µM]
Nc1ccn(C[C@@H](CO)OCP(=O)(O)O)c(=O)n1 [CIDOFOVIR] | 5 | 4.8 | – | – | –
Nc1ncnc2c1ccn2[C@@H]1C=C(CO)[C@@H](O)[C@H]1O [DEAZANEPLANOCIN A] | 1.2 | 3.4 | 4.6 | 21.5 | > 300
